Test results published in US20120232062A1, “AZAINDAZOLES TO TREAT FLAVIVIRIDAE VIRUS INFECTION” (EIGER BIOPHARMACEUTICALS, INC., priority 2009, published 2012).

Each compound was assayed on HCV genotype 1b (assay: HCV 1b replicon luciferase assay). Details: Hepatitis C virus, Huh-7, 48 h, Table 1; Huh7 HCV 1b replicon, luciferase reporter, 48 hours; read-out: 1b EC50.
Format: cell-based
Description: A suitable 1b HCV RNA replicon assay uses the Huh7 cell line which contains an HCV 1b RNA replicon with a stable luciferase (LUC) reporter. This construct contains modifications that make the cell line more robust and provides stable LUC expression for antiviral screening. The LUC reporter is used as an indirect measure of HCV replication. The activity of the LUC reporter is directly proportional to HCV RNA levels and positive control antiviral compounds behave comparably using LUC endpoints. […]
Fresh growth medium is prepared just before use. The container used in the procedure is a 10 cm diameter culture dish. HCV replicon reporter cell lines are used. Prepare complete medium: add FBS and appropriate additives as described in “Culture Media”, below. Pre-warm the medium in a 37° C. thermostat water bath. Remove the dish from a 37° C. CO2 incubator. Check the cell name and complete medium and passage number marked on the dish. Aspirate the medium carefully and add 1 ml PBS to rinse the cells. Remove and discard the solution and add 1 ml of 0.25% Trypsin/0.02% EDTA. Rinse the cells with the added Trypsin/EDTA to ensure all the cells have been rinsed. Remove the Trypsin/EDTA with a vacuum pump and incubate at 37° C. for 3-5 minutes. Examine the cell morphology under an inverted microscope to confirm that a single cell suspension is clearly visible. Add 3 ml of complete medium to the dish and suspend the cell by gentle pipetting. Count the cell numbers with a hematometer. Adjust cell density to 100 k/ml by adding appropriate volume of the complete medium. Add 100 μl of cell suspension to each well of a 96-well white plate; the cell density is thus 10 k per well. Mark the plate with cell name, passage number, seeding density, date and the name of the operator. Place the 96-well assay plate in 37° C. 5% CO2 incubator for 24 hours.
Compounds are prepared or provided at 25 mM in 100% DMSO. This is the compound stock solution. The dilution procedure should be performed in a cell culture hood. Dispense the stock solution into the second column of a 96-well plate. Prepare 9-step (10 concentrations total), 5-fold serial dilutions by transferring 10 μA of the compound into the next well containing 40 μA of DMSO. Repeat for all compounds. Aspirate 2 μl of the above compound solution from each well and add into 198 μl complete media using a 12-channel pipetter to obtain the 10-fold concentration compound solution with 1% DMSO, mix well.
Remove the 96-well assay plate from the 37° C./5% CO2 incubator, examine the cell morphology under an inverted microscope. In a cell culture hood, add 10 μl of the 10× concentration compounds solution into each well on the 96-well assay plate. All compound's dose responses are done in duplicate. The starting final concentration of the compounds is 25 μM, and DMSO final concentration 0.1%. Mark the plate with compound code(s) and concentrations. Place the 96-well assay plate into CO2 incubator for 48 hours. Add 30 μl of Stead-Glo Luciferase System (Promega) reagent to each well and mix by gentle shaking on a plate shaker for 5 minutes to allow throughout cell lysis. Measure the luminescence with Envision (Perkin Elmer) with an integration time of 2 seconds. Record and analyze the data.
The cell culture media is DMEM complete: DMEM (Life Technologies #41965-039) supplemented with 10% FCS, 2 mM Glutamin (Life Technologies #25030-024), Penicillin (100 IU/ml)/Streptomycin (100 μg/ml) (Life Technologies #15140-114) and 1× nonessential amino acids (Life Technologies #11140-035). G418 (“Geneticin”, Life Technologies): concentrations are given as weight per volume of the original substance. Specific activity of a typical batch is ca. 700 μg/mg as stated by the manufacturer. […] Therefore each new batch of G418 should be tested individually e.g. in an electroporation experiment using different selection conditions (0.2-1 mg/ml).

`Cn1nc(C(=O)NC2CCNCC2)c2ccc(NCc3ccccc3)nc21` [compound 1042] and `Cn1nc(C(=O)NC2CCNCC2)c2ccc(OCc3ccccc3)nc21` [compound 1051] are within 1.5-fold of each other in EC50: 3800 nM for the first, 2900 nM for the second.

First: Cn1nc(C(=O)NC2CCN(Cc3ccncc3)CC2)c2ccc(N3CCCCCC3)nc21 [compound 1043]
Second: COc1ccc(CN2CCC(NC(=O)c3nn(C)c4nc(N5CCCCCC5)ccc34)CC2)cc1 [compound 1044]
The EC50 of the first is 1.6-fold higher: 1200 nM for the first, 760 nM for the second. The second is the more potent here.

First: CC(C)c1ccc(CN2CCC(NC(=O)c3nn(C)c4nc(N5CCCCCC5)ccc34)CC2)cc1 [compound 1046]
Second: Cc1ccc(CN2CCC(NC(=O)c3nn(C)c4nc(N5CCCCCCC5)ccc34)CC2)cc1 [compound 1224]
The EC50 of the first is 1.9-fold lower: 1400 nM for the first, 2700 nM for the second.

Going from `Cn1nc(C(=O)NC2CCNCC2)c2ccc(N3CCCN(Cc4ccccc4)CC3)nc21` [compound 1049] to `Cn1nc(C(=O)NC2CCNCC2)c2ccc(OCc3ccccc3Br)nc21` [compound 1065], the EC50 falls from 6100 nM to 3300 nM (1.8-fold).

`Cn1nc(-c2c[nH]c(CC3CCNCC3)n2)c2ccc(N3CCCCCC3)nc21` [compound 1054] and `Cn1nc(-c2c[nH]c(C3CCNCC3)n2)c2ccc(N3CCCCCC3)nc21` [compound 1094] are within 1.5-fold of each other in EC50: 8600 nM for the first, 6500 nM for the second.

Compared with `Cn1nc(C(=O)NC2CCNCC2)c2ccc(OCc3ccccc3-c3nc4ccccc4s3)nc21` [compound 1066], `Cn1nc(C(=O)NC2CCNCC2)c2ccc(OCc3ccccc3-c3cccs3)nc21` [compound 1101] is 3.1-fold lower in EC50: 2500 nM for the first, 800 nM for the second. The second is the more potent here.

First: Cn1nc(-c2ncc(-c3ccc(Br)cc3)[nH]2)c2ccc(N3CCCCCC3)nc21 [compound 1069]
Second: Cn1nc(-c2cnc(C(=O)NCc3ccccc3)s2)c2ccc(N3CCCCCCC3)nc21 [compound 1250]
The EC50 of the first is 5.9-fold higher: 8300 nM for the first, 1400 nM for the second. The second is the more potent here.

`Cn1nc(C(=O)NC2CCN(CC3CCCCC3)CC2)c2ccc(NC3CCCCCC3)nc21` [compound 1073] and `Cn1nc(C(=O)NC2CCN(CC3CCCCC3)CC2)c2ccc(NC3CCCCCCC3)nc21` [compound 1076] are within 1.5-fold of each other in EC50: 670 nM for the first, 600 nM for the second.

First: CC(C)CN(C)c1ccc2c(C(=O)NC3CCN(CC4CCCCC4)CC3)nn(C)c2n1 [compound 1075]
Second: CN(c1ccc2c(C(=O)NC3CCN(CC4CCCCC4)CC3)nn(C)c2n1)C1CCCCCC1 [compound 1077]
The EC50 of the first is 2.1-fold lower: 760 nM for the first, 1600 nM for the second.

Compared with `Cn1nc(C(=O)NC2CCNCC2)c2ccc(OCc3ccccc3-c3cccnc3)nc21` [compound 1085], `Cn1nc(C(=O)NC2CCNCC2)c2ccc(OCc3ccccc3-c3cccc(Cl)c3)nc21` [compound 1088] is 1.6-fold lower in EC50: 2200 nM for the first, 1400 nM for the second. The second is the more potent here.

`Cn1nc(-c2c[nH]c(C3CCCNC3)n2)c2ccc(N3CCCCCC3)nc21` (stereo not shown) [compound 1095] and `Cn1nc(-c2cnc(C3CCCNC3)s2)c2ccc(N3CCCCCCC3)nc21` (stereo not shown) [compound 1248] are within 1.5-fold of each other in EC50: 3800 nM for the first, 4100 nM for the second.

Going from `Cn1nc(-c2coc(CC3CCNCC3)n2)c2ccc(N3CCCCCC3)nc21` [compound 1096] to `Cn1cc(-c2nn(C)c3nc(N4CCCCCC4)ccc23)nc1CC1CCNCC1` [compound 1126], the EC50 rises from 2800 nM to 7700 nM (2.8-fold). The first is the more potent here.

First: Cn1nc(-c2cnc(C(=O)NCC3CCNCC3)s2)c2ccc(N3CCCCCC3)nc21 [compound 1097]
Second: Cn1nc(-c2cnc(C(=O)NCC3CCCNC3)s2)c2ccc(N3CCCCCC3)nc21 (stereo not shown) [compound 1130]
The EC50 of the first is 3.4-fold higher: 3400 nM for the first, 990 nM for the second. The second is the more potent here.

Going from `Cn1nc(C(=O)NC2CCNCC2)c2ccc(OCc3ccccc3-c3ccco3)nc21` [compound 1100] to `Cn1nc(C(=O)NC2CCNCC2)c2ccc(OCc3ccccc3-c3ccc(Cl)cc3)nc21` [compound 1102], the EC50 falls from 1400 nM to 620 nM (2.3-fold). The second is the more potent here.

First: C=CCCCCCCN1CCC(NC(=O)c2nn(C)c3nc(N4CCCCCC4)ccc23)CC1 [compound 1103]
Second: C=CCCCCCn1nc(C(=O)NC2CCN(CC=C)CC2)c2ccc(N3CCCCCC3)nc21 [compound 1106]
The EC50 of the first is 27-fold lower: 300 nM for the first, 8100 nM for the second.

First: C=CCCCn1nc(C(=O)NC2CCN(CC=C)CC2)c2ccc(N3CCCCCC3)nc21 [compound 1104]
Second: C=CCCCCn1nc(C(=O)NC2CCN(CC=C)CC2)c2ccc(N3CCCCCC3)nc21 [compound 1105]
The EC50 of the first is 3.4-fold lower: 2200 nM for the first, 7500 nM for the second.

Going from `COc1cncc(-c2ccccc2COc2ccc3c(C(=O)NC4CCNCC4)nn(C)c3n2)c1` [compound 1119] to `Cn1nc(-c2cnc(C(=O)NC3CCNCC3)s2)c2ccc(N3CCCCCC3)nc21` [compound 1127], the EC50 rises from 1500 nM to 2900 nM (1.9-fold). The first is the more potent here.

Going from `Cn1nc(-c2nnc(C3CCNCC3)o2)c2ccc(N3CCCCCC3)nc21` [compound 1125] to `Cn1nc(-c2cnc(C(=O)NC3CCCNC3)s2)c2ccc(N3CCCCCC3)nc21` (stereo not shown) [compound 1128], the EC50 falls from 840 nM to 490 nM (1.7-fold).

`CC1CC(NC(=O)c2nn(C)c3nc(N4CCCCCCC4)ccc23)CCN1CC1CCCCC1` (stereo not shown) [compound 1151] and `CC1CC(NC(=O)c2nn(C)c3nc(N4CCCCCCC4)ccc23)CCN1CCCC1CCCCC1` (stereo not shown) [compound 1153] are within 1.5-fold of each other in EC50: 1400 nM for the first, 1500 nM for the second.

First: CC1CC(NC(=O)c2nn(C)c3nc(N4CCCCCCC4)ccc23)CCN1Cc1ccc(OC(F)F)cc1 (stereo not shown) [compound 1152]
Second: CCN1CCC(NC(=O)c2nn(C)c3nc(N4CCCCCCC4)ccc23)CC1C (stereo not shown) [compound 1234]
The EC50 of the first is 3.2-fold higher: 6100 nM for the first, 1900 nM for the second.

First: Cn1nc(CCCN2CCCCC2)c2ccc(N3CCCCCCC3)nc21 [compound 1172]
Second: Clc1ccc(Cn2nc(COCCN3CCCCC3)c3ccc(N4CCCCCCC4)nc32)cc1 [compound 1204]
The EC50 of the first is 3.6-fold lower: 1500 nM for the first, 5400 nM for the second.

Compared with `CCN(c1ccc2c(C(=O)NC3CCN(CC4CCCCC4)CC3)nn(C)c2n1)C1CCCCCC1` [compound 1183], `Cn1nc(C(=O)NC2CCN(CC3CCCCC3)CC2)c2ccc(N(Cc3ccccc3)C3CCCCCC3)nc21` [compound 1184] is 4.4-fold lower in EC50: 746 nM for the first, 168 nM for the second. The second is the more potent here.

First: Clc1ccc(Cn2nc(COCCCN3CCCCC3)c3ccc(N4CCCCCCC4)nc32)cc1 [compound 1205]
Second: Cn1nc(-c2cnc(C3CCCN(Cc4ccc(OC(F)F)cc4)C3)s2)c2ccc(N3CCCCCCC3)nc21 (stereo not shown) [compound 1257]
The EC50 of the first is 1.7-fold higher: 4000 nM for the first, 2400 nM for the second. The second is the more potent here.

`Cn1nc(C(=O)NC2CCN(CC3CC3)CC2)c2ccc(N3CCCCCCC3)nc21` [compound 1222] and `CCCN1CCC(NC(=O)c2nn(C)c3nc(N4CCCCCCC4)ccc23)CC1` [compound 1235] are within 1.5-fold of each other in EC50: 3200 nM for the first, 3400 nM for the second.

Compared with `Cn1nc(C(=O)NC2CCN(CC(F)F)CC2)c2ccc(N3CCCCCCC3)nc21` [compound 1223], `CC(C)CN1CCC(NC(=O)c2nn(C)c3nc(N4CCCCCCC4)ccc23)CC1` [compound 1236] is 2.2-fold higher in EC50: 2800 nM for the first, 6300 nM for the second. The first is the more potent here.

First: CC(C)CCN1CCC(NC(=O)c2nn(C)c3nc(N4CCCCCCC4)ccc23)CC1C (stereo not shown) [compound 1233]
Second: Cn1nc(-c2cnc(C(=O)NC3CCCCC3)s2)c2ccc(N3CCCCCCC3)nc21 [compound 1254]
The EC50 of the first is 3.8-fold higher: 5300 nM for the first, 1400 nM for the second.

Compared with `Cn1nc(-c2cnc(C(=O)NCC3CCCCC3)s2)c2ccc(N3CCCCCCC3)nc21` [compound 1251], `Cn1nc(-c2cnc(C(=O)NCC3CCCN(CC(F)F)C3)s2)c2ccc(N3CCCCCCC3)nc21` (stereo not shown) [compound 1261] is 1.8-fold higher in EC50: 1000 nM for the first, 1800 nM for the second. The first is the more potent here.

Compared with `Cn1nc(-c2cnc(C3CCCN(CC4CCCCC4)C3)s2)c2ccc(N3CCCCCCC3)nc21` (stereo not shown) [compound 1255], `Cn1nc(-c2cnc(C3CCN(CC4CCCCC4)C3)s2)c2ccc(N3CCCCCCC3)nc21` (stereo not shown) [compound 1268] is 5.2-fold lower in EC50: 3000 nM for the first, 580 nM for the second.

In the case of `Cn1nc(-c2cnc([C@@H]3CCCN3CC3CCCCC3)s2)c2ccc(N3CCCCCCC3)nc21` [compound 1264], the EC50 is reported as 2400 nM.

Same assay, conditions: Table 1; Huh7 HCV 1b replicon, luciferase reporter, 48 hours; read-out: 1b EC50

`Cc1ccc(CN2CCC(NC(=O)c3nn(C)c4nc(N5CCCCCC5)ccc34)CC2)cc1` [compound 1045] showed an EC50 of 1100 nM.
